In article PMC10458360, “Assembling a Cinnamyl Pharmacophore in the C3-Position of Substituted Isatins via Microwave-Assisted Synthesis: Development of a New Class of Monoamine Oxidase-B Inhibitors for the Treatment of Parkinson’s Disease” (Molecules, 2023):

Tests used:
MAO-B [1] = conditions: cited from earlier work
MAO-B [2] = target: T1, MAO-B (Homo sapiens, UniProt P27338); assay: biochemical; conditions: 0.3 mM benzylamine; for IC50: IC50 (µM) MAO-B, limit 40 µM; for remaining activity at 10 µM: read-out: Residual Activity at 10 µM (%) MAO-B, 10 µM compound
T1 sequence (P27338 1-520): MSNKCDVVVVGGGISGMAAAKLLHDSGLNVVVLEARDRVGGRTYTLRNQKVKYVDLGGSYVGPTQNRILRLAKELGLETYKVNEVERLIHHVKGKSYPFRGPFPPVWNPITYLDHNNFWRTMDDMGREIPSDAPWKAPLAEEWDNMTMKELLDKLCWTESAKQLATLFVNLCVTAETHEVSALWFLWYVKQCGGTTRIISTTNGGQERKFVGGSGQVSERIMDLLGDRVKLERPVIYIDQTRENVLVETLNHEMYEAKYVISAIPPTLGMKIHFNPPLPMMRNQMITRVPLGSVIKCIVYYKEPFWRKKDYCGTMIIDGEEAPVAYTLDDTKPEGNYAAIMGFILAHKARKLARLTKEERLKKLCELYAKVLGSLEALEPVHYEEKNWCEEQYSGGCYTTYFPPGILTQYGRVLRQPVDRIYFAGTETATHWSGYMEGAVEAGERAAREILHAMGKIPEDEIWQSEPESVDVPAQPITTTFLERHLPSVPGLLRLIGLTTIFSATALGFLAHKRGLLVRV

MAO-A = target: T2, MAO-A (Homo sapiens, UniProt P21397); assay: Inhibition of MAO-A (kynuramine, continuous absorbance assay); conditions: for remaining activity at 10 µM: read-out: Residual Activity at 10 µM (%) MAO-A
T2 sequence (P21397 1-527): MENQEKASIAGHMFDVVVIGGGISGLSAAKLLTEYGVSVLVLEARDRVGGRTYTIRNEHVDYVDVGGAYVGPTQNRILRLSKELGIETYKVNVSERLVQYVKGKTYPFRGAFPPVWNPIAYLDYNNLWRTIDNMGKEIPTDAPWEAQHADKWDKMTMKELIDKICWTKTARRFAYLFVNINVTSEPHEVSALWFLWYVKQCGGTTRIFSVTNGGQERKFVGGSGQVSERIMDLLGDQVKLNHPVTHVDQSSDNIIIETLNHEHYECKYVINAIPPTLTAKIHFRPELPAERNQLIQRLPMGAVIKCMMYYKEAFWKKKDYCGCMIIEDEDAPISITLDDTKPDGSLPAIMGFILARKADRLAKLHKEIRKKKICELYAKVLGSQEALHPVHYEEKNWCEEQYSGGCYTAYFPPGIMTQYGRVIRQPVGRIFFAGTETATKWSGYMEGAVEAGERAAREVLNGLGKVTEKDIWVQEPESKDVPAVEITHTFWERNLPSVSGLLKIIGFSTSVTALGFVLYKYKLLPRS

MAO-B [3] = target: T1, MAO-B; conditions: for SI (selectivity index): IC50 for MAO-A/IC50 for MAO-B
MAO-B [4] = target: T1, MAO-B; assay: MAO-B enzyme kinetics (Lineweaver-Burk and secondary plot); assay type: biochemical
SH-SY5Y cells = assay: Neuroprotection on rotenone-induced SH-SY5Y cells by MTT assay; assay type: cell-based
MAO-B [5] = target: T1, MAO-B; assay: Reversibility of MAO-B inhibition by dialysis; assay type: biochemical; conditions: for Residual activity, dialyzed (AD): dialyzed 6 h, two buffer changes
MAO = tested on: MAO; set-up: method as in PMID 27374845; conditions: cited from earlier work
[6] = ~2.0 times IC50, preincubation 30 min

SMILES	IC50 (MAO-B [2]) [µM]	remaining activity at 10 µM (MAO-B [2]) [%]	IC50 (MAO-A) [µM]	remaining activity at 10 µM (MAO-A) [%]	further results
O=C1Nc2ccc(OCc3ccc(Cl)c(Cl)c3)cc2C1=O [A3]					IC50 (MAO-B [1]): 0.003 µM
O=C1Nc2ccc(Br)cc2C1=O [Compound 1f]					IC50 (MAO-B [1]): 0.125 µM
C#CCN1C(=O)/C(=N/NC(=O)c2ccc3c(c2)OCO3)c2ccccc21 [Compound 3]					IC50 (MAO-B [1]): 0.034 µM
O=C(CN1CCc2cc(OCc3ccccc3)ccc21)N1CCN(CCO)CC1 [Compound 14]					IC50 (MAO-B [1]): 8.65 µM
O=C1Nc2ccccc2C1=NN=CC=Cc1ccccc1 [IHC1]	> 40	89.3 ± 3	> 40	94.5 ± 2.1	
O=C1Nc2ccc(Br)cc2C1=NN=CC=Cc1ccccc1 [IHC2]	16.9 ± 0.397	61.4 ± 3.42	> 40	92.37 ± 0.52	SI (selectivity index) (MAO-B [3]): >2.36
O=C1Nc2ccc(F)cc2/C1=N/N=CC=Cc1ccccc1 [IHC3]	1.67		> 40	76.9 ± 1.55	Type of MAO-B inhibition (MAO-B [4]; Lineweaver-Burk plot): competitive MAO-B inhibitor; Ki (MAO-B [4]; secondary plot, benzylamine substrate): 0.51 ± 0.15 µM; SI (selectivity index) (MAO-B [3]): >23.92; Times higher MAO-B inhibition than IHMC2 (MAO-B [3]; ratio of IC50 values): 15.07 times; Times higher MAO-B inhibition than IHNC2 (MAO-B [3]; ratio of IC50 values): 13.15 times; Cell viability trend (SH-SY5Y cells; 25 µg/mL IHC3, rotenone-induced cells, MTT): viability decreased; viability at 12.5 µg/mL (SH-SY5Y cells; Homo sapiens, SH-SY5Y, 12.5 µg/mL IHC3, rotenone-induced cells, MTT, 24 h, read-out: Cell viability (maximum)): 89.7%; Cell death caused by rotenone (SH-SY5Y cells; SH-SY5Y neuroblastoma cells): greatly decreased the cell death; Reversibility of MAO-B inhibition (MAO-B [5]; dialysis): reversible MAO-B inhibitor; Residual activity, dialyzed (AD) (MAO-B [5]; [6]): 72.05%; Residual activity, undialyzed (AU) (MAO-B [5]; ~2.0 times IC50, preincubation 30 min, undialyzed): 32.87%
O=C1Nc2ccc(Cl)cc2C1=NN=CC=Cc1ccccc1 [IHC4]	27.5 ± 1.15	73.9 ± 8.87	> 40	86.7 ± 1.78	SI (selectivity index) (MAO-B [3]): >1.46
COc1ccc2c(c1)C(=NN=CC=Cc1ccccc1)C(=O)N2 [IHC5]	> 40	75.8 ± 6.17	> 40	82.3 ± 1.8	
Cc1ccc2c(c1)C(=NN=CC=Cc1ccccc1)C(=O)N2 [IHC6]	> 40	79.4 ± 3.25	> 40	98.1 ± 1.55	
COc1ccc(C=CC=NN=C2C(=O)Nc3ccccc32)cc1 [IHMC1]	> 40	96.89 ± 0.95	> 40	89.9 ± 1.3	
COc1ccc(C=CC=NN=C2C(=O)Nc3ccc(Br)cc32)cc1 [IHMC2]	25.19 ± 0.147	78.1 ± 1.12	> 40	86.63 ± 0.52	SI (selectivity index) (MAO-B [3]): >1.59
COc1ccc(C=CC=NN=C2C(=O)Nc3ccc(F)cc32)cc1 [IHMC3]	> 40	81.3 ± 4.61	> 40	85.5 ± 6.42	
COc1ccc(C=CC=NN=C2C(=O)Nc3ccc(Cl)cc32)cc1 [IHMC4]	> 40	76.5 ± 3.27	> 40	81.46 ± 0.77	
COc1ccc(C=CC=NN=C2C(=O)Nc3ccc(OC)cc32)cc1 [IHMC5]	> 40	85.6 ± 4.27	> 40	84.48 ± 0.73	
COc1ccc(C=CC=NN=C2C(=O)Nc3ccc(C)cc32)cc1 [IHMC6]	> 40	91.8 ± 3.48	> 40	89.8 ± 2.55	
O=C1Nc2ccccc2C1=NN=CC=Cc1ccc([N+](=O)[O-])cc1 [IHNC1]	> 40	96.9 ± 3.36	> 40	88.7 ± 2.4	
O=C1Nc2ccc(Br)cc2C1=NN=CC=Cc1ccc([N+](=O)[O-])cc1 [IHNC2]	22 ± 0.354	71.2 ± 1.99	> 40	88.5 ± 0.71	SI (selectivity index) (MAO-B [3]): >1.82
O=C1Nc2ccc(F)cc2C1=NN=CC=Cc1ccc([N+](=O)[O-])cc1 [IHNC3]	> 40	78.9 ± 3.35	> 40	80.4 ± 0.57	
O=C1Nc2ccc(Cl)cc2C1=NN=CC=Cc1ccc([N+](=O)[O-])cc1 [IHNC4]	26.5 ± 0.6	74.5 ± 4.63	> 40	82.3 ± 0.99	SI (selectivity index) (MAO-B [3]): >1.51
COc1ccc2c(c1)C(=NN=CC=Cc1ccc([N+](=O)[O-])cc1)C(=O)N2 [IHNC5]	> 40	82 ± 1.05	> 40	88.6 ± 1.98	
Cc1ccc2c(c1)C(=NN=CC=Cc1ccc([N+](=O)[O-])cc1)C(=O)N2 [IHNC6]	> 40	81.1 ± 6.4	> 40	87.2 ± 1.13	
C[C@H](NCc1ccc(OCc2cccc(F)c2)cc1)C(N)=O [Safinamide, reference compound]					Residual activity, dialyzed (AD) (MAO-B [5]; [6]): 85.86%
O=C1Nc2ccccc2C1=O [isatin, 1H-indole-2,3-dione]					IC50 (MAO): ~3 µM
